Test results as given in ChEMBL document CHEMBL5356988, “Diversely functionalized isoquinolines and their core-embedded heterocyclic frameworks: a privileged scaffold for medicinal chemistry” (RSC Med Chem, 2023).

How the values were obtained:
Interleukin-5 = biological target: T1, Interleukin-5 (Homo sapiens, UniProt P05113); experiment: Inhibition of IL-5 (unknown origin)
T1 sequence (P05113 whole entry): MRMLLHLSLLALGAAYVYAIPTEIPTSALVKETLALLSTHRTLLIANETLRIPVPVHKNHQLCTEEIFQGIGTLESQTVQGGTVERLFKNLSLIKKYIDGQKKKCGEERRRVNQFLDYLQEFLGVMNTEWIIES

HGC-27 = experiment: Antiproliferative activity against human HGC-27 cells assessed as reduction in cell viability by CCK-8 assay; type: functional, cell-based

| IC50 (Interleukin-5) | SMILES | IC50 (HGC-27) |
| --- | --- | --- |
| 2000 nM | C=C1Oc2c(ccc3cc(C)ncc23)C1=O | – |
| – | Fc1ccc(/C=C/c2nccc3ccccc23)cc1F | 80 nM |
| – | Fc1ccc(/C=C/c2nccc3ccccc23)c(F)c1 | 40 nM |
